According to PMC6181586 (Chemical communications (Cambridge, England), 2018):

Biological target: CatB (Homo sapiens, UniProt P07858)
Experiment: SDS-PAGE of adduct formation with CatB
Assay type: biochemical
Details: co-incubation with conjugates and CatB, SDS-PAGE autoradiography

CCCNC(=O)[C@H]1O[C@@H]1C(=O)N[C@H](C(=O)N1CCC[C@H]1C(=O)O)[C@@H](C)CC [CA-074]
Effect of co-incubation on CatB adducts of the conjugates: eliminated observable CatB adducts
